Tests used:
[1] = target: T1, ligand binding domain of human FXR (Homo sapiens, UniProt Q96RI1); test: biochemical; settings: for Emax: extent of activation relative to GW4064, read-out: Ligand Binding % Efficacy; for EC50: −log EC50, concentration required to produce 50% activation, FRET 520 nm/495 nm, 1 hour at room temperature, read-out: Ligand Binding pEC50 (converted)
T1 construct: purchased Thermofisher (LanthaScreen) PV4833
T1 sequence (Q96RI1 262-486 limits assumed): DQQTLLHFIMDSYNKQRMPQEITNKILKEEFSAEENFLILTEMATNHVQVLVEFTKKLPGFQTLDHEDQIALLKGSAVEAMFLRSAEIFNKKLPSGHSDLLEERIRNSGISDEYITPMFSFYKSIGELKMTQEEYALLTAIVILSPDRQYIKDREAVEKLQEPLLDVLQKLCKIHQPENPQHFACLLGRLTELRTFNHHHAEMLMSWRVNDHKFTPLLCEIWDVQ

[2] = target: T2, human Farnesoid X receptor ligand-binding domain/Gal4 DNA binding domain chimera (Homo sapiens, UniProt Q96RI1); test: Cell-based assay of FXR activation (FXR-UAS-bla HEK 293T beta-lactamase reporter); settings: for Emax: HEK-293T, read-out: Cellular % Efficacy
T2 construct: host or cells: FXR-UAS-bla HEK 293T (CellSensor UAS-bla HEK 293T)
T2 sequence (Q96RI1 262-486 limits assumed): T1 sequence (Q96RI1 262-486 limits assumed)
Protocol: FXR activation was measured using a cell line and procedure obtained from Life Technologies (Cat #K1691). […] Activation of FXR by bound ligands results in transcriptional activation of the beta-lactamase reporter gene, which is detected via assay of beta-lactamase activity.
Cells are harvested and diluted into assay medium containing phenol red-free DMEM supplemented with 2% Charcoal-stripped FBS, pyruvate, non-essential amino acids. Cells are then transferred to a 384 well assay plate. Test compounds are dissolved in DMSO and a 3-fold serial dilution series is generated, then further diluted into assay medium. Compounds in assay medium are added to cells in the 384 well plate and allowed to incubate 16 h at 37 C in the presence of 5% CO2.
A FRET-based […] (CCF4) is loaded into cells as its acetomethoxy ester. Intracellular esterases liberate free CCF4, a cephalosporin core linking 7-hydroxycoumarin to fluorescein. In the presence of beta-lactamase activity produced in the presence of FXR agonists, cleavage of CCF4 spatially separates the two dyes and disrupts FRET, so that exciting the coumarin at 409 nm now produces a blue fluorescence signal at 447 nm. The change in FRET signal is plotted against the test compound concentration and fit to a 3-parameter logistical equation.

O=C(O)CCc1ccc(N2C[C@@H]3C[C@H]2C[C@H]3OCc2c(-c3c(Cl)cccc3Cl)cnn2C2CC2)c(F)c1 [Compound I-44, 3-{4-[(1S,4S,5R)-5-{[1-cyclopropyl-4-(2,6-dichlorophenyl)-1H-pyrazol-5-yl]methoxy}-2-azabicyclo[2.2.1]heptan-2-yl]-3-fluorophenyl}propanoic acid]
Emax [1]: 96%
EC50 [1]: < 631 nM
EC50 [2]: < 31.6 nM

CS(=O)(=O)CCNC(=O)c1ccc(N2C[C@@H]3C[C@H]2C[C@H]3OCc2c(-c3c(Cl)cccc3Cl)cnn2C2CC2)cc1F [Compound I-45, 4-[(1S,4S,5R)-5-{[1-cyclopropyl-4-(2,6-dichlorophenyl)-1H-pyrazol-5-yl]methoxy}-2-azabicyclo[2.2.1]heptan-2-yl]-2-fluoro-N-(2-methanesulfonylethyl)benzamide]
Emax [1]: 57%
EC50 [1]: 398 nM
EC50 [2]: 1000 nM
Emax [2]: 92%

O=C(NS(=O)(=O)C1CCOCC1)c1ccc(N2C[C@@H]3C[C@H]2C[C@H]3OCc2c(-c3c(Cl)cccc3Cl)cnn2C2CC2)cc1 [Compound I-46, 4-[(1S,4S,5R)-5-{[1-cyclopropyl-4-(2,6-dichlorophenyl)-1H-pyrazol-5-yl]methoxy}-2-azabicyclo[2.2.1]heptan-2-yl]-N-(oxane-4-sulfonyl)benzamide]
Emax [1]: 170%
EC50 [1]: 100 nM
EC50 [2]: < 31.6 nM

O=C(O)c1cc(F)c2nc(N3C[C@@H]4C[C@H]3C[C@H]4OCc3c(-c4c(Cl)cccc4Cl)cnn3C3CC3)sc2c1 [Compound I-47, 2-[(1S,4S,5R)-5-{[1-cyclopropyl-4-(2,6-dichlorophenyl)-1H-pyrazol-5-yl]methoxy}-2-azabicyclo[2.2.1]heptan-2-yl]-4-fluoro-1,3-benzothiazole-6-carboxylic acid]
Emax [1]: 62%
EC50 [1]: 251 nM
EC50 [2]: 398 nM
Emax [2]: 94%

O=C(O)c1cc(OC2CC2)c2nc(N3C[C@@H]4C[C@H]3C[C@H]4OCc3c(-c4c(Cl)cccc4Cl)cnn3C3CC3)sc2c1 [Compound I-48, 4-cyclopropoxy-2-[(1S,4S,5R)-5-{[1-cyclopropyl-4-(2,6-dichlorophenyl)-1H-pyrazol-5-yl]methoxy}-2-azabicyclo[2.2.1]heptan-2-yl]-1,3-benzothiazole-6-carboxylic acid]
Emax [1]: 88%
EC50 [1]: 39.8 nM
EC50 [2]: 20 nM
Emax [2]: 101%

O=C(O)c1cc(C2CCOCC2)c2nc(N3C[C@@H]4C[C@H]3C[C@H]4OCc3c(-c4c(Cl)cccc4Cl)cnn3C3CC3)sc2c1 [Compound I-49, 2-[(1S,4S,5R)-5-{[1-cyclopropyl-4-(2,6-dichlorophenyl)-1H-pyrazol-5-yl]methoxy}-2-azabicyclo[2.2.1]heptan-2-yl]-4-(oxan-4-yl)-1,3-benzothiazole-6-carboxylic acid]
Emax [1]: 82%
EC50 [1]: 100 nM
EC50 [2]: < 63.1 nM
Emax [2]: 105%

O=C(O)c1ccc(N2C[C@@H]3C[C@H]2C[C@H]3OCc2c(C3CC3)nnn2-c2c(Cl)cccc2Cl)cc1 [Compound I-52, 4-[(1S,4S,5R)-5-{[4-cyclopropyl-1-(2,6-dichlorophenyl)-1H-1,2,3-triazol-5-yl]methoxy}-2-azabicyclo[2.2.1]heptan-2-yl]benzoic acid]
Emax [1]: 140%
EC50 [1]: 6.31 nM
EC50 [2]: 3.98 nM
Emax [2]: 106%

O=C(O)c1ccc(N2C[C@@H]3C[C@H]2C[C@H]3OCc2c(C3CC3)nnn2-c2c(Cl)cccc2Cl)cc1F [Compound I-53, 4-[(1S,4S,5R)-5-{[4-cyclopropyl-1-(2,6-dichlorophenyl)-1H-1,2,3-triazol-5-yl]methoxy}-2-azabicyclo[2.2.1]heptan-2-yl]-2-fluorobenzoic acid]
Emax [1]: 170%
EC50 [1]: 6.31 nM
EC50 [2]: 3.98 nM
Emax [2]: 92%

O=C(O)CCc1ccc(N2C[C@@H]3C[C@H]2C[C@H]3OCc2c(C3CC3)nnn2-c2c(Cl)cccc2Cl)c(F)c1 [Compound I-54, 3-{4-[(1S,4S,5R)-5-{[4-cyclopropyl-1-(2,6-dichlorophenyl)-1H-1,2,3-triazol-5-yl]methoxy}-2-azabicyclo[2.2.1]heptan-2-yl]-3-fluorophenyl}propanoic acid]
Emax [1]: 152%
EC50 [1]: 20 nM
EC50 [2]: 12.6 nM
Emax [2]: 100%

O=C(O)CCc1ccc(N2C[C@@H]3C[C@H]2C[C@H]3OCc2c(C3CC3)nnn2-c2c(Cl)cccc2Cl)cc1F [Compound I-55, 3-{4-[(1S,4S,5R)-5-{[4-cyclopropyl-1-(2,6-dichlorophenyl)-1H-1,2,3-triazol-5-yl]methoxy}-2-azabicyclo[2.2.1]heptan-2-yl]-2-fluorophenyl}propanoic acid]
Emax [1]: 147%
EC50 [1]: 63.1 nM
EC50 [2]: 15.8 nM
Emax [2]: 91%

O=C(NS(=O)(=O)C1CCOCC1)c1ccc(N2C[C@@H]3C[C@H]2C[C@H]3OCc2c(C3CC3)nnn2-c2c(Cl)cccc2Cl)cc1 [Compound I-56, 4-[(1S,4S,5R)-5-{[4-cyclopropyl-1-(2,6-dichlorophenyl)-1H-1,2,3-triazol-5-yl]methoxy}-2-azabicyclo[2.2.1]heptan-2-yl]-N-(oxane-4-sulfonyl)benzamide]
Emax [1]: 180%
EC50 [1]: 2 nM
EC50 [2]: 10 nM
Emax [2]: 104%

O=C(O)c1cc(O[C@H]2CCOC2)c2nc(N3C[C@@H]4C[C@H]3C[C@H]4OCc3c(C4CC4)nnn3-c3c(Cl)cccc3Cl)sc2c1 [Compound I-61, 2-[(1S,4S,5R)-5-{[4-cyclopropyl-1-(2,6-dichlorophenyl)-1H-1,2,3-triazol-5-yl]methoxy}-2-azabicyclo[2.2.1]heptan-2-yl]-4-[(3S)-oxolan-3-yloxy]-1,3-benzothiazole-6-carboxylic acid]
Emax [1]: 158%
EC50 [1]: 3.98 nM
EC50 [2]: 25.1 nM
Emax [2]: 107%

O=C(O)c1cc(O[C@@H]2CCOC2)c2nc(N3C[C@@H]4C[C@H]3C[C@H]4OCc3c(C4CC4)nnn3-c3c(Cl)cccc3Cl)sc2c1 [Compound I-62, 2-[(1S,4S,5R)-5-{[4-cyclopropyl-1-(2,6-dichlorophenyl)-1H-1,2,3-triazol-5-yl]methoxy}-2-azabicyclo[2.2.1]heptan-2-yl]-4-[(3R)-oxolan-3-yloxy]-1,3-benzothiazole-6-carboxylic acid]
Emax [1]: 158%
EC50 [1]: 3.98 nM
EC50 [2]: 25.1 nM
Emax [2]: 106%

O=C(O)c1cc(OC(F)(F)F)c2nc(N3C[C@@H]4C[C@H]3C[C@H]4OCc3c(-c4c(Cl)cccc4Cl)nnn3C3CC3)sc2c1 [Compound I-63, 2-[(1S,4S,5R)-5-{[1-cyclopropyl-4-(2,6-dichlorophenyl)-1H-1,2,3-triazol-5-yl]methoxy}-2-azabicyclo[2.2.1]heptan-2-yl]-4-(trifluoromethoxy)-1,3-benzothiazole-6-carboxylic acid]
Emax [1]: 180%
EC50 [1]: 12.6 nM
EC50 [2]: 12.6 nM
Emax [2]: 103%

O=C(O)c1cc(OC2CC2)c2nc(N3C[C@@H]4C[C@H]3C[C@H]4OCc3c(-c4c(Cl)cccc4Cl)nnn3C3CC3)sc2c1 [Compound I-64, 4-cyclopropoxy-2-((1S,4S,5R)-5-((1-cyclopropyl-4-(2,6-dichlorophenyl)-1H-1,2,3-triazol-5-yl)methoxy)-2-azabicyclo[2.2.1]heptan-2-yl)benzo[d]thiazole-6-carboxylic acid]
Emax [1]: 172%
EC50 [1]: 5.01 nM
EC50 [2]: 10 nM
Emax [2]: 113%

O=C(O)c1cc(C2CCOCC2)c2nc(N3C[C@@H]4C[C@H]3C[C@H]4OCc3c(-c4c(Cl)cccc4Cl)nnn3C3CC3)sc2c1 [Compound I-67, 2-((1S,4S,5R)-5-((1-cyclopropyl-4-(2,6-dichlorophenyl)-1H-1,2,3-triazol-5-yl)methoxy)-2-azabicyclo[2.2.1]heptan-2-yl)-4-(tetrahydro-2H-pyran-4-yl)benzo[d]thiazole-6-carboxylic acid]
Emax [1]: 148%
EC50 [1]: 20 nM
EC50 [2]: 10 nM
Emax [2]: 111%

O=C(O)c1cc(C2CCC2)c2nc(N3C[C@@H]4C[C@H]3C[C@H]4OCc3c(-c4c(Cl)cccc4Cl)nnn3C3CC3)sc2c1 [Compound I-68, 4-cyclobutyl-2-[(1S,4S,5R)-5-{[1-cyclopropyl-4-(2,6-dichlorophenyl)-1H-1,2,3-triazol-5-yl]methoxy}-2-azabicyclo[2.2.1]heptan-2-yl]-1,3-benzothiazole-6-carboxylic acid]
Emax [1]: 178%
EC50 [1]: 3.98 nM
EC50 [2]: 1.58 nM
Emax [2]: 106%

O=C(O)c1cc(C2CCCC2)c2nc(N3C[C@@H]4C[C@H]3C[C@H]4OCc3c(-c4c(Cl)cccc4Cl)nnn3C3CC3)sc2c1 [Compound I-69, 4-cyclopentyl-2-[(1S,4S,5R)-5-{[1-cyclopropyl-4-(2,6-dichlorophenyl)-1H-1,2,3-triazol-5-yl]methoxy}-2-azabicyclo[2.2.1]heptan-2-yl]-1,3-benzothiazole-6-carboxylic acid]
Emax [1]: 168%
EC50 [1]: 6.31 nM
EC50 [2]: 2.51 nM
Emax [2]: 111%

Reference: patent publication US11753410B2, “Hormone receptor modulators for treating metabolic mutagenic and fibrotic conditions and disorders” (priority 2017, dated 2023)
